Source: patent publication US4766131A, “2-amino (or hydroxy) phenethyl-1,2,3,4-tetrahydroisoquinolines as analgesics” (Pennwalt Corporation, priority 1986, dated 1988)
Where a name gives a salt, the structure may show the parent alone.

Tests used:
mice [1] = assay: phenyl-benzoquinone (PBQ) writhing test; assay type: in vivo, mouse
Experimental: (§1) Two compounds, N-(4-aminophenethyl)-1,2,3,4-tetrahydro-6,7-dimethoxy-1-methylisoquinoline(Compound No. 1) and its N-methyl derivative (Compound No. 2) were tested for analgesic activity in rats and mice by the oral and subcutaneous routes. In addition, gross behavioral and toxicological effects (as well as general pharmacological profiling) were evaluated in mice by the intraperitoneal route of administration.
In mice, two test procedures designed to detect analgesic activity were used: the phenyl-benzoquinone (PBQ) writhing test and the hot plate test. […] […] In the hot plate test, subjects were placed on the surface of a hot copper plate maintained at 54.5°±1.0° C. For the oral studies drugs were injected 30 minutes before testing on the hot plate. Drugged animals whose reaction time (consisting of paw licking or jumping behavior) was equal to or greater than 2 seconds over the average of an untreated control group of mice were considered to be protected from the pain.

rats [2] = assay: tail flick test in rats; assay type: in vivo; conditions: po, 1 h; rat, p.o., 60 minute post dose interval; read-out: ED50 (95% C.L.), Rat Tail Flick
Experimental: as §1
In rats, two procedures designed to detect anlgesic acitivity were used: the hot plate test and the tail flick test. In the hot plate test, rats were placed on the surface of a copper plate maintained at 54.5°±1.0° C. and their response latency (again consisting of paw licking or jumping behavior) determined at 60 minutes and again at 30 minutes before drug injection. These response times were again determined 30 and 60 minutes after drug injection and animals whose response latencies were equal to or greater than three seconds over the second pre-treatment trial (i.e., the one done 30 minutes before dosing) were considered protected from the pain. In the tail flick procedure, a high intensity light beam was focused on the blackened portion of the rat's tail and the reaction time, i.e., latency to move its tail, was measured before and 15, 30, 45, 60, 90 and 120 minutes after drug administration. […]

mice [3] = assay: hot plate test in mice; assay type: in vivo; conditions: po, 0.5 h; mouse, p.o., 30 minutes before testing, 54.5°±1.0° C.; read-out: ED50 (95% C.L.), Mouse Hot Plate
Experimental: as §1
In mice, two test procedures designed to detect analgesic activity were used: the phenyl-benzoquinone (PBQ) writhing test and the hot plate test. In the PBQ procedure, the drugs were injected 15 minutes before an intraperitoneal injection of PBQ was made for the subcutaneous studies and 30 minutes before the PBQ for the oral studies. […] In the hot plate test, subjects were placed on the surface of a hot copper plate maintained at 54.5°±1.0° C. For the oral studies drugs were injected 30 minutes before testing on the hot plate. Drugged animals whose reaction time (consisting of paw licking or jumping behavior) was equal to or greater than 2 seconds over the average of an untreated control group of mice were considered to be protected from the pain.

rats [4] = assay: hot plate test in rats; assay type: in vivo; conditions: 1 h, rat, 60 minute post dose interval, 54.5°±1.0° C., read-out: ED50 (95% C.L.), Rat Hot Plate
Experimental: as §1
In rats, two procedures designed to detect anlgesic acitivity were used: the hot plate test and the tail flick test. In the hot plate test, rats were placed on the surface of a copper plate maintained at 54.5°±1.0° C. and their response latency (again consisting of paw licking or jumping behavior) determined at 60 minutes and again at 30 minutes before drug injection. These response times were again determined 30 and 60 minutes after drug injection and animals whose response latencies were equal to or greater than three seconds over the second pre-treatment trial (i.e., the one done 30 minutes before dosing) were considered protected from the pain. In the tail flick procedure, a high intensity light beam was focused on the blackened portion of the rat's tail and the reaction time, i.e., latency to move its tail, was measured before and 15, 30, 45, 60, 90 and 120 minutes after drug administration. A subject was considered protected from the pain stimulus when Po ≥Pr +Pr 2 where Po is the individual post treatment value and Pr, the pretreatment value. The ED50's reported below for both of these procedures were calculated from values obtained at the 60 minute post dose interval.

[5] = literature, Medicinal Chemistry, Vol. 5; cited from earlier work
[6] = sc, 0.25 h, mouse PBQ assay, s.c., 15 min post dose, table 6, read-out: Analgesic activity, s.c. ED50 at 15 min post dose
[7] = sc, 0.75 h, mouse PBQ assay, s.c., 45 min post dose, table 6, read-out: Analgesic activity, s.c. ED50 at 45 min post dose
[8] = po, 0.5 h, mouse, p.o., drug 30 minutes before PBQ, read-out: ED50 (95% C.L.), Mouse PBQ
[9] = sc, 0.25 h, mouse, s.c., drug 15 minutes before PBQ, table 5, read-out: ED50 (95% C.L.), Mouse PBQ

| SMILES | ED50 (mice [1]; [6]) | ED50 (mice [1]; [7]) | other results |
| --- | --- | --- | --- |
| COc1ccc2c(c1)CCN(CCc1ccc([N+](=O)[O-])cc1)C2C.Cl.Cl (stereo not drawn) [Example 9, N-(4-Nitrophenethyl)-1,2,3,4-tetrahydro-6-methoxy-1-methylisoquinoline dihydrochloride] | 10.4 mg/kg | 16.4 mg/kg |  |
| COc1cc2c(cc1OC)CN(CCc1ccc([N+](=O)[O-])cc1)CC2.Cl [Example 7, N-(4-Nitrophenethyl)-1,2,3,4-tetrahydro-6,7-dimethoxyisoquinoline hydrochloride] | 9 mg/kg | 34 mg/kg |  |
| CNc1ccc(CCN2CCc3cc(OC)ccc3C2C)cc1.Cl (stereo not drawn) [Example 11, N-(4-Methylaminophenethyl)-1,2,3,4-tetrahydro-6-methoxy-1-methylisoquinoline hydrochloride] | 6 mg/kg | 13.8 mg/kg |  |
| COc1cc2c(cc1OC)C(C)N(CCc1ccc(NC(C)=O)cc1)CC2.Cl (stereo not drawn) [Example 6, N-(4-Acetamidophenethyl)-1,2,3,4-tetrahydro-6,7-dimethoxy-1-methylisoquinoline hydrochloride] | 21 mg/kg | 31.6 to 56.2 mg/kg |  |
| COc1cc2c(cc1OC)CN(CCc1ccc(O)cc1)CC2.Cl [Example 13, N-(4-Hydroxyphenethyl)-1,2,3,4-tetrahydro-6,7-dimethoxyisoquinoline hydrochloride] | 2.8 mg/kg | 22.4 mg/kg |  |
| COc1cc2c(cc1OC)C(C)N(CCc1cccc(N)c1)CC2.Cl.Cl (stereo not drawn) [Example 3, N-(3-Aminophenethyl)-1,2,3,4-tetrahydro-6,7-dimethoxy-1-methylisoquinoline dihydrochloride] | 11.9 mg/kg | 20.2 mg/kg |  |
| COc1cc2c(cc1OC)CN(CCc1ccc(N)cc1)CC2.Cl.Cl [Example 8, N-(4-Aminophenethyl)-1,2,3,4-tetrahydro-6,7-dimethoxyisoquinoline dihydrochloride] | 2.9 mg/kg | 16.2 mg/kg |  |
| COc1cc2c(cc1OC)C(C)N(CCc1ccc(N)cc1)CC2 (stereo not drawn) [Example 1, N-(4-aminophenethyl)-1,2,3,4-tetrahydro-6,7-dimethoxy-1-methylisoquinoline] | 7 mg/kg | 24.2 mg/kg | ED50 (rats [2]): ~31.6 mg/kg; ED50 (mice [3]): 25.7 mg/kg; ED50 (rats [4]; po, p.o.): 30 to 60 mg/kg; ED50 (rats [4]; sc, s.c.): 35.7 mg/kg; ED50 (mice [1]; [8]): 48.5 mg/kg; ED50 (mice [1]; [9]): 3.7 mg/kg |
| COc1cc2c(cc1OC)C(C)N(CCc1ccc(N(C)C)cc1)CC2.Cl.Cl (stereo not drawn) [Example 5, N-(4-Dimethylaminophenethyl)-1,2,3,4-tetrahydro-6,7-dimethoxy-1-methylisoquinoline dihydrochloride] | 27.3 mg/kg | 26.7 mg/kg |  |
| CC1c2cc(O)c(O)cc2CCN1CCc1ccc(N)cc1 (stereo not drawn) [Example 15, N-(4-Aminophenethyl)-1,2,3,4-tetrahydro-6,7-dihydroxy-1-methylisoquinolinedihydrobromide] | 25.4 mg/kg | ~100 mg/kg |  |
| COc1ccc2c(c1)CCN(CCc1ccc(N)cc1)C2C.Cl.Cl (stereo not drawn) [Example 10, N-(4-Aminophenethyl)-1,2,3,4-tetrahydro-6-methoxy-1-methyl-isoquinoline dihydrochloride] | 6.5 mg/kg | 11.8 mg/kg |  |
| COc1cc2c(cc1OC)C(C)N(CCc1ccccc1N)CC2 (stereo not drawn) [Example 4, N-(2-Aminophenethyl-1,2,3,4-tetrahydro-6,7-dimethoxy-1-methylisoquinolinedihydrochloride] | 10.7 mg/kg | 34 mg/kg |  |
| COc1cc2c(cc1OC)C(C)N(CCc1ccc(O)cc1)CC2.Cl (stereo not drawn) [Example 12, N-(4-Hydroxyphenethyl)-1,2,3,4-tetrahydro-6,7-dimethoxy-1-methylisoquinoline hydrochloride] | 5.8 mg/kg | 10 to 31.6 mg/kg |  |
| COc1ccc2c(c1)CCN(CCc1ccc(NC=O)cc1)C2C (stereo not drawn) [Example 11 (N--Formyl), N-(4-Formamidophenethyl)-1,2,3,4-tetrahydro-6-methoxy-1-methylisoquinoline] | 3.5 mg/kg | 15.3 mg/kg |  |
| COc1cc2c(cc1O)CCN(CCc1ccc(N)cc1)C2C.Cl.Cl (stereo not drawn) [Example 14, N-(4-Aminophenethyl)-1,2,3,4-tetrahydro-6-hydroxy-7-methoxy-1-methylisoquinoline dihydrochloride] | 7.3 mg/kg | 25.8 mg/kg |  |
| CNc1ccc(CCN2CCc3cc(OC)c(OC)cc3C2C)cc1.Cl (stereo not drawn) [Example 2, N-(4-Methylaminophenethyl)-1,2,3,4-tetrahydro-6,7-dimethoxy-1-methylisoquinoline hydrochloride] |  |  | ED50 (rats [2]): 30 to 60 mg/kg; ED50 (mice [3]): 31.7 mg/kg; ED50 (rats [4]; po, p.o.): ~17.8 mg/kg; ED50 (mice [1]; [8]): 42.8 mg/kg; ED50 (mice [1]; [9]): 5.2 mg/kg |
| COc1cc2c(cc1OC)C(C)N(CCc1ccc(Cl)cc1)CC2 (stereo not drawn) |  |  | analgesic properties / activity reported by Brossi et al [5]: reported not to exhibit analgesic properties |
